Among the data in patent US20240360146A1, “BRUTON'S TYROSINE KINASE AND MUTANT DEGRADER, COMPOSITION AND APPLICATION THEREOF” (HANGZHOU HEALZEN THERAPEUTICS CO., LTD., priority 2021, published 2024) are DC50 values, retold here.

The structures appear in SMILES notation.

T1 sequence (Q06187 whole entry): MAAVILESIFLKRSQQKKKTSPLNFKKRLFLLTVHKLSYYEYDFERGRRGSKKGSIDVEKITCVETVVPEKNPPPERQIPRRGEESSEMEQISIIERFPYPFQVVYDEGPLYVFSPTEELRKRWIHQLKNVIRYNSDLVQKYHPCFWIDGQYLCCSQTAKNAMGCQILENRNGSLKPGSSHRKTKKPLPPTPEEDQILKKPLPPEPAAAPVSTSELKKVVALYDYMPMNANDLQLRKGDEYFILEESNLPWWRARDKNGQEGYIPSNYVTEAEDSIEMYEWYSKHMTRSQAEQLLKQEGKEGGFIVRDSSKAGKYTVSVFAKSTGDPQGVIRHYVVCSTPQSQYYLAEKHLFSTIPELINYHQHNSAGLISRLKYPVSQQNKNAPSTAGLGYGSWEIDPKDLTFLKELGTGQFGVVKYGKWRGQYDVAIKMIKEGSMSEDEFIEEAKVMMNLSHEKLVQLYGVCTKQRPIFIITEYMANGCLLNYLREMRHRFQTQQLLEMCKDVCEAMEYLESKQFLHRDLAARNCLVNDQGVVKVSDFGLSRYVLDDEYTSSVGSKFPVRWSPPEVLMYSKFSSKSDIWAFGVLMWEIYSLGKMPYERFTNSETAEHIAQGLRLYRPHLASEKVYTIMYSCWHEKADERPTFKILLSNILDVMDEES

This experiment addresses T1, BTK (Homo sapiens, UniProt Q06187).
T1 construct: endogenous in cells; host or cells: Mino cells
Put plainly: BTK degradation activity test in Mino cells. The following applies: 16 h incubation, Western blot or Elisa. Type of experiment: cell-based. In a few lines: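 DC50 derived by curve fitting of BTK degradation rates versus untreated control across compound concentrations. Mino cells were exposed for 16 h; BTK levels in lysates, normalised via BCA protein, measured by Western blot or ELISA.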
A general note: In western blotting, separated proteins are transferred to a membrane and probed.
Regarding `CN1CCN([C@@H]2CCCN(c3nnc(C(N)=O)c(Nc4ccc(N5CCN(CC6CCN(c7ccc(N8CCC(=O)NC8=O)c(C8CC8)c7)CC6)CC5)c(F)c4)n3)C2)C1=O` [Compound 194, (R)-5-((4-(4-((1-(3-cyclopropyl-4-(2,4-dioxotetrahydropyrimidin-1(2H)-yl)phenyl)piperidin-4-yl)methyl)piperazin-1-yl)-3-fluorophenyl)amino)-3-(3-(3-methyl-2-oxoimidazolidin-1-yl)piperidin-1-yl)-1,2,4-triazin-6-carboxamide], the DC50 is under 1 nM.

The molecule `CN1CCN([C@@H]2CCCN(c3nnc(C(N)=O)c(Nc4ccc(N5CCN(CC6CCN(c7ccc(N8CCC(=O)NC8=O)cc7S(C)(=O)=O)CC6)CC5)c(F)c4)n3)C2)C1=O` [Compound 197, (R)-5-((4-(4-((1-(4-(2,4-dioxotetrahydropyrimidin-1(2H)-yl)-2-(methylsulfonyl)phenyl)piperidin-4-yl)methyl)piperazin-1-yl)-3-fluorophenyl)amino)-3-(3-(3-methyl-2-oxoimidazolidin-1-yl)piperidin-1-yl)-1,2,4-triazin-6-carboxamide] showed a DC50 of under 1 nM.

`CN1CCN([C@@H]2CCCN(c3nnc(C(N)=O)c(Nc4ccc(N5CCN(CC6CCN(c7ccc(N8CCC(=O)NC8=O)cc7P(C)(C)=O)CC6)CC5)c(F)c4)n3)C2)C1=O` [Compound 198, (R)-5-((4-(4-((1-(2-(dimethylphosphoryl)-4-(2,4-dioxotetrahydropyrimidin-1(2H)-yl)phenyl)piperidin-4-yl)methyl)piperazin-1-yl)-3-fluorophenyl)amino)-3-(3-(3-methyl-2-oxoimidazolidin-1-yl)piperidin-1-yl)-1,2,4-triazin-6-carboxamide] gave a DC50 of under 1 nM.

The molecule `CN1CCN([C@@H]2CCCN(c3nnc(C(N)=O)c(Nc4ccc(N5CCN(CC6CCN(c7ccc(N8CCC(=O)NC8=O)c8cccnc78)CC6)CC5)c(F)c4)n3)C2)C1=O` [Compound 199, (R)-5-((4-(4-((1-(5-(2,4-dioxotetrahydropyrimidin-1(2H)-yl)quinolin-8-yl)piperidin-4-yl)methyl)piperazin-1-yl)-3-fluorophenyl)amino)-3-(3-(3-methyl-2-oxoimidazolidin-1-yl)piperidin-1-yl)-1,2,4-triazin-6-carboxamide] gave a DC50 of under 1 nM.

Molecule `CN1CCN([C@@H]2CCCN(c3nnc(C(N)=O)c(Nc4ccc(N5CCN(CC6CCN(c7ccc(NC8CCC(=O)NC8=O)nc7)C6)CC5)c(F)c4)n3)C2)C1=O` (stereo partly drawn) [Compound 200, 5-((4-(4-((1-(6-((2,6-dioxopiperidin-3-yl)amino)pyridin-3-yl)pyrrolidin-3-yl)methyl)piperazin-1-yl)-3-fluorophenyl)amino)-3-((R)-3-(3-methyl-2-oxoimidazolidin-1-yl)piperidin-1-yl)-1,2,4-triazin-6-carboxamide] gave a DC50 of under 1 nM.

As for `CN1CCN([C@@H]2CCCN(c3nnc(C(N)=O)c(Nc4ccc(N5CCN(CC6CCN(c7ccc(NC8CCC(=O)NC8=O)cn7)C6)CC5)c(F)c4)n3)C2)C1=O` (stereo partly drawn) [Compound 201, 5-((4-(4-((1-(5-((2,6-dioxopiperidin-3-yl)amino)pyridin-2-yl)pyrrolidin-3-yl)methyl)piperazin-1-yl)-3-fluorophenyl)amino)-3-((R)-3-(3-methyl-2-oxoimidazolidin-1-yl)piperidin-1-yl)-1,2,4-triazin-6-carboxamide], the DC50 is under 1 nM.

As for `CN1CCN([C@@H]2CCCN(c3nnc(C(N)=O)c(Nc4ccc(N5CCN(CC6CCN(c7ccc(NC8CCC(=O)NC8=O)c(F)c7)C6)CC5)c(F)c4)n3)C2)C1=O` (stereo partly drawn) [Compound 204, 5-((4-(4-((1-(4-((2,6-dioxopiperidin-3-yl)amino)-3-fluorophenyl)pyrrolidin-3-yl)methyl)piperazin-1-yl)-3-fluorophenyl)amino)-3-((R)-3-(3-methyl-2-oxoimidazolidin-1-yl)piperidin-1-yl)-1,2,4-triazin-6-carboxamide], the DC50 was under 1 nM.

In the case of `Cc1cc(N2CCC(CN3CCN(c4ccc(Nc5nc(N6CCC[C@@H](N7CCN(C)C7=O)C6)nnc5C(N)=O)cc4F)CC3)C2)ccc1NC1CCC(=O)NC1=O` (stereo partly drawn) [Compound 206, 5-((4-(4-((1-(4-((2,6-dioxopiperidin-3-yl)amino)-3-methylphenyl)pyrrolidin-3-yl)methyl)piperazin-1-yl)-3-fluorophenyl)amino)-3-((R)-3-(3-methyl-2-oxoimidazolidin-1-yl)piperidin-1-yl)-1,2,4-triazin-6-carboxamide], the DC50 was under 1 nM.

`CN1CCN([C@@H]2CCCN(c3nnc(C(N)=O)c(Nc4ccc(N5CCN(CC6CCN(c7ccc(NC8CCC(=O)NC8=O)c8c7OCO8)C6)CC5)c(F)c4)n3)C2)C1=O` (stereo partly drawn) [Compound 208, 5-((4-(4-((1-(7-((2,6-dioxopiperidin-3-yl)amino)benzo[d][1,3]dioxacyclopent-4-yl)pyrrolidin-3-yl)methyl)piperazin-1-yl)-3-fluorophenyl)amino)-3-((R)-3-(3-methyl-2-oxoimidazolidin-1-yl)piperidin-1-yl)-1,2,4-triazin-6-carboxamide] showed a DC50 of under 1 nM.

Regarding `CN1CCN([C@@H]2CCCN(c3nnc(C(N)=O)c(Nc4ccc(N5CCN(CC6CCN(c7ccc(NC8CCC(=O)NC8=O)c8c7OCCO8)CC6)CC5)c(F)c4)n3)C2)C1=O` (stereo partly drawn) [Compound 211, 5-((4-(4-((1-(8-((2,6-dioxopiperidin-3-yl)amino)-2,3-dihydrobenzo[b][1,4]dioxan-5-yl)piperidin-4-yl)methyl)piperazin-1-yl)-3-fluorophenyl)amino)-3-((R)-3-(3-methyl-2-oxoimidazolidin-1-yl)piperidin-1-yl)-1,2,4-triazin-6-carboxamide], the DC50 was under 1 nM.

For the molecule `CN1CCN([C@@H]2CCCN(c3nnc(C(N)=O)c(Nc4ccc(N5CCN(CC6CCN(c7ccc8c(C9CCC(=O)NC9=O)nn(C)c8c7)C6)CC5)c(F)c4)n3)C2)C1=O` (stereo partly drawn) [Compound 212, 5-((4-(4-((1-(3-(2,6-dioxopiperidin-3-yl)-1-methyl-1H-indazol-6-yl)pyrrolidin-3-yl)methyl)piperazin-1-yl)-3-fluorophenyl)amino)-3-((R)-3-(3-methyl-2-oxoimidazolidin-1-yl)piperidin-1-yl)-1,2,4-triazin-6-carboxamide], the DC50 is under 1 nM.

With `CN1CCN([C@@H]2CCCN(c3nnc(C(N)=O)c(Nc4ccc(N5CCN(CC6CCN(c7ccc8c(C9CCC(=O)NC9=O)nn(C)c8n7)C6)CC5)c(F)c4)n3)C2)C1=O` (stereo partly drawn) [Compound 214, 5-((4-(4-((1-(3-(2,6-dioxopiperidin-3-yl)-1-methyl-H-pyrazolo[3,4-b]pyridin-6-yl)pyrrolidin-3-yl)methyl)piperazin-1-yl)-3-fluorophenyl)amino)-3-((R)-3-(3-methyl-2-oxoimidazolidin-1-yl)piperidin-1-yl)-1,2,4-triazin-6-carboxamide], the DC50 was under 1 nM.

`CN1CCN([C@@H]2CCCN(c3nnc(C(N)=O)c(Nc4ccc(N5CCN(CC6CCN(c7ccc8c(C9CCC(=O)NC9=O)nn(C)c8n7)CC6)CC5)c(F)c4)n3)C2)C1=O` (stereo partly drawn) [Compound 215, 5-((4-(4-((1-(3-(2,6-dioxopiperidin-3-yl)-1-methyl-1H-pyrazolyl[3,4-b]pyridin-6-yl)piperidin-4-yl)methyl)piperazin-1-yl)-3-fluorophenyl)amino)-3-((R)-3-(3-methyl-2-oxoimidazolidin-1-yl)piperidin-1-yl)-1,2,4-triazin-6-carboxamide]: the DC50 is under 1 nM.

The DC50 is the concentration giving 50% degradation. Read a low DC50 as a more potent degrader.
